This passage reports infection results from patent US20110004021A1, “THIAZOLECARBOXANILIDES” (priority 2005, published 2011).

This assay deals with Alternaria solani. Description: Activity against early blight of tomato caused by Alternaria solani. Type of assay: in vivo. Particulars: tomato cultivar Goldene Königin, protective spray 4 ppm, infected next day, assessed after 5 days; untreated plants 90% infected. The protocol:
The active compounds were prepared as a stock solution comprising 25 mg of active compound which was filled up to 10 ml with a mixture of acetone and/or dimethyl sulfoxide and the emulsifier Uniperol® EL (wetting agent having an emulsifying and dispersing action based on ethoxylated alkylphenols) in a solvent/emulsifier volume ratio of 99 to 1. The solution was then made up to 100 ml with water. This stock solution was diluted with the solvent/emulsifier/water mixture described to the active compound concentration given below.
Leaves of potted plants of the cultivar “Goldene Königin” were sprayed to runoff point with an aqueous suspension having the concentration of active compounds stated below. The next day, the leaves were infected with an aqueous spore suspension of Alternaria solani in 2% biomalt solution having a density of 0.12×10^6 spores/ml. The plants were then placed in a water-vapor-saturated chamber at temperatures of between 20 and 22° C. After 5 days, the infection on the untreated, but infected control plants had developed to such an extent that the infection could be determined visually in %.

With `Cc1nc(C(F)(F)F)c(C(=O)Nc2ccccc2-c2ccc(F)c(F)c2)s1`, the infection is given as 20%.
The result for `Cc1nc(C(F)(F)F)c(C(=O)Nc2ccccc2-c2cc(F)c(F)c(F)c2)s1` [I.1, N-(3′,4′,5′-Trifluorobiphenyl-2-yl)-2-methyl-4-trifluoromethylthiazole-5-carboxamide] reads “at most 7%”.
